From patent publication US20050137183A1, “Method and pharmaceutical compositions for treating or inhibiting renal dysfunctions, diseases or disorders, particularly in diabetic patients” (Solvay Pharmaceuticals GmbH, priority 2003, published 2005)

Legend:
Format in all cases: in vivo, rat
[1] = test system: rats with streptozotocin-induced diabetes; assay: Blood pressure (tail-cuff plethysmography), heart rate, body weight, glucose and side-effects in streptozotocin-induced diabetic rats
Experimental: (§1) All experiments were conducted in accordance with guidelines for the care and use of laboratory animals. Diabetes was induced in rats by a single tail vein injection of streptozotocin (60 mg/kg b.wt.), without insulin treatment, as recently described in Horcher et al., “Renal endothelin system in diabetes: inhibition and endothelin-A antagonism.”, J. Cardiovasc. Pharmacol. 1998; 31: 492-495. Diabetes was confirmed in streptozotocin treated rats by determining serum glucose concentrations. Only those rats were included having plasma glucose concentrations of >15 mmol/l (hyperglycemic rats, diabetic rats). Three groups of rats were investigated with n 7 to 11 per group: • 1) non-diabetic rats control group; • 2) diabetic rats control group, vehicle treated; • 3) treated diabetic rats group: with test compound of formula I ((3S,2′R)-3-{1-[2′-(ethoxycarbonyl)-4′-phenylbutyl]-cyclopentane-1-carbonylamino}-2,3,4,5-tetrahydro-2-oxo-1H-1-benzazepine-1-acetic-acid), 30 mg/kg/day for 18 weeks.
The experiment performed according to the present invention over 18 weeks of treatment provided the following results which are detailed in Table I, and FIGS. 1 and 2. In the context of the present invention, the most important data to be considered are the mean blood pressure (BP; tail-cuff plethysmography), the protein and albumin excretion (mean values, standard deviations) in urine which was collected in metabolic cages over 24 h, and number (n) of animals in each group regarding non-diabetic controls, diabetic vehicle treated controls (=placebo) and test compound treated group.
(§2) At baseline, serum glucose and blood pressure were similar in both diabetic groups. Compared to vehicle, the test compound of formula I had no effect on these parameters during the treatment period. After 18 weeks treatment, urinary protein and albumin excretion were measured. Protein excretion in the vehicle-treated group was about 18 mg/24 h; in the group which had received the compound of formula I it was about 4.8 mg/24 h (p=0.03 versus vehicle). Albumin excretion in the vehicle-group was about 0.5 mg/24 h, and in the which had received the compound of formula I it was about 0.1 mg/24 h (p=0.04). […] From the experiments it can be concluded that test compound of formula I decreases protein and albumin excretion in diabetic rats independent of blood pressure. From the results it may be concluded that the compounds of formula I exert a primary effect on end-organ disease.

[2] = test system: rats with streptozotocin-induced diabetes; assay: Glomerular filtration rate by endogenous creatinine clearance in streptozotocin-induced diabetic rats; conditions: 30 mg/kg/day oral, after 18 weeks of treatment
Experimental: as §1
Glomerular filtration rate was calculated by the endogeneous creatinine clearance. It was observed that administering a compound of formula I as defined above improved the overall glomerular filtration rate.

[3] = test system: rats with streptozotocin-induced diabetes; assay: Plasma concentrations of ET-1, bigET-1 and angiotensin-II in streptozotocin-induced diabetic rats; conditions: 30 mg/kg/day oral, 18 weeks
Experimental: as §1, §2

[4] = 30 mg/kg/day oral, after 18 weeks of treatment
[5] = 30 mg/kg/day oral, during the treatment period

CCOC(=O)[C@H](CCc1ccccc1)CC1(C(=O)N[C@H]2CCc3ccccc3N(CC(=O)O)C2=O)CCCC1 [test compound of formula I, (3S,2′R)-3-{1-[2′-(ethoxycarbonyl)-4′-phenylbutyl]-cyclopentane-1-carbonylamino}-2,3,4,5-tetrahydro-2-oxo-1H-1-benzazepine-1-acetic-acid]
Blood Pressure, mean value ([1]; 30 mg/kg/day oral with food, after 18 weeks of treatment, tail-cuff): 129 mmHg
Side-effects ([1]; 30 mg/kg/day oral, 18 weeks): No side-effects
Body Weight, mean value [1, 4]: 252.7 g
Glucose, final, mean value [1, 4]: 560.33 mg/dL
Heart Rate, mean value [1, 4]: 280 beats/min
Effect on blood pressure compared to vehicle [1, 5]: no effect
Effect on serum glucose compared to vehicle [1, 5]: no effect
Glomerular Filtration Rate, final, mean value [2]: 2.014 mL/min
Plasma concentration of ET-1 compared to vehicle [3]: unchanged
Plasma concentration of angiotensin-II compared to vehicle [3]: unchanged
Plasma concentration of bigET-1 compared to vehicle [3]: unchanged
